Source: patent US9958434B2, “Fluorescent probe sensing tyrosine kinase and use thereof” (POSTECH ACADEMY-INDUSTRY FOUNDATION, priority 2013, dated 2018)

Columns and labels:
[1] = tested on: mouse cutaneous melanoma cells (B16F10); experiment: Cytotoxicity, cell counting kit-8 (CCK-8); format: cell-based; details: B16F10, 0 to 200 μM, incubated for an hour
Method: The present inventors confirmed the cytotoxicity of compound 1 in mouse cutaneous melanoma cells (B16F10) using a cell counting kit-8 (CCK-8) method (Dojindo laboratories, Kumamoto, Japan).
More particularly, the B16F10 cells were incubated for 24 hours (at 37° C.) at a density of 5000 cells/well in a 96-well plate under a 5% CO2 atmosphere. The cells were treated with an increasing concentration of compound 1 (10 μM, 30 μM, 50 μM, 100 μM, and 200 μM) in a DMSO solvent, and then incubated for an hour. Thereafter, the cells were treated with 10 μL of a CCK-8 solution, and then incubated for 2 hours.

[2] = tested on: B16F10, CT26, SNU-475, A431, SKBR3, HeLa, U87MG cancer cells; experiment: Fluorescence turn-on in cancer cells, single-photon and two-photon fluorescence microscopy; format: cell-based, mouse, human; details: 50 μM, one hour; single-photon ex 405 nm, two-photon ex 880 nm, em 500 to 550 nm
Method: More particularly, a total of seven kinds of cancer cells, for example, (a) B16F10 mouse skin cancer cells, (b) CT26 mouse colon cancer cells, (c) SNU-475 human liver cancer cells, (d) A431 human epidermoid carcinoma cells, (e) SKBR3 human breast cancer cells, (f) HeLa human uterine cancer cells, and (g) U87MG human brain tumor cells, were treated with compound 1, and fluorescence images of the cancer cells were observed under a single-photon (confocal) fluorescence microscope (FV1000 model, Olympus) and a two-photon fluorescence microscope (Chameleon Ultra, Coherent, home-built version). Each of the cancer cells were incubated in a minimum essential medium with Earle's balanced salts (MEM/EBSS), a Dulbecco's modified Eagle medium (DMEM), a Roswell Park Memorial Institute (RPMI) medium, a fetal bovine serum (FBS), a penicillin-streptomycin (PS) medium, phosphate buffered saline (PBS), and a trypsin-EDTA culture broth, all of which were commercially available from Hyclone. In this case, the incubation was performed at 37° C. […] When the preparation was completed, a fluorescence image was obtained using a fluorescence microscope.
In FIG. 11, the top panel represents a bright field image, the middle panel represents a single-photon fluorescence microscope image of the cells, and the bottom panel represents a two-photon fluorescence microscope image of the cells.

[3] = tested on: CT-26 cancer cells; experiment: Emission wavelengths of fluorescence in cancer cells using an optical fiber; format: cell-based, mouse; details: CT-26 cells treated with compound 1 as in Example 12
Method: More particularly, CT-26 cancer cells were treated with compound 1 in the same manner as performed in Example 12, and emission wavelengths of fluorescence were then determined using an optical fiber. The optical fiber was connected to a spectrofluorometer (FL1039, HORIBA), and ranges of excitation wavelengths and emission wavelengths are substantially the same as in Example 12. Then, the emission wavelengths of fluorescence were determined.

[4] = target: T1, PDGFRa (Homo sapiens, UniProt P16234); experiment: Protein binding selectivity by change in fluorescence (fluorescence turn-on on binding)
T1 construct: purchased Carna Biosciences
T1 sequence (P16234 24-1089): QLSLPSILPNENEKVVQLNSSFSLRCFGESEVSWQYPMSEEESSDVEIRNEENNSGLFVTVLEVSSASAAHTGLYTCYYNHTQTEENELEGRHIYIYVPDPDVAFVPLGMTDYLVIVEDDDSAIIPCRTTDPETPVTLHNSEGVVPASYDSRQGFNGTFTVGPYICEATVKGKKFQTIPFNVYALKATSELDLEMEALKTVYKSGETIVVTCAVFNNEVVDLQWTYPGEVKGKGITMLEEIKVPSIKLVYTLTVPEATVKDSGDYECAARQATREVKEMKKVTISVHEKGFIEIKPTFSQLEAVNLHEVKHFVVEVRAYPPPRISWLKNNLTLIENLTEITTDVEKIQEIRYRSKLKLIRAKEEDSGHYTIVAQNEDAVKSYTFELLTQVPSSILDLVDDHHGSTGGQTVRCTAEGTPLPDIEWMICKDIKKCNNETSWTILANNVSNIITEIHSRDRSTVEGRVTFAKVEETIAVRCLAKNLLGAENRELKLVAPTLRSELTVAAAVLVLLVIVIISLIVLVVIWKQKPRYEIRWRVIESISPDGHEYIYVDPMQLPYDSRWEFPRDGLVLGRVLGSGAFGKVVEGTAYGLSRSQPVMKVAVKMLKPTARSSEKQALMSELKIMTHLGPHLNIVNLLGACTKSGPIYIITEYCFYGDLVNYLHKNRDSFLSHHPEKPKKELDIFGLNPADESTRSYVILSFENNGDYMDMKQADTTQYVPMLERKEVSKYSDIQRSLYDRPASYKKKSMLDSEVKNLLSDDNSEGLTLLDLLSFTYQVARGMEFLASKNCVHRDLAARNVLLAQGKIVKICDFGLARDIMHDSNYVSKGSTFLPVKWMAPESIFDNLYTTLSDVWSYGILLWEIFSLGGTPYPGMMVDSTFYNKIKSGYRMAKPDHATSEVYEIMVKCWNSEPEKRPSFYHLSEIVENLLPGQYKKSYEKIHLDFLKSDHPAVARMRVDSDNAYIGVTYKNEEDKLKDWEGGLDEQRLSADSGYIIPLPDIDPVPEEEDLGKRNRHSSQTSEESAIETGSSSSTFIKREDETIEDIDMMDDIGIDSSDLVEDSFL
Method: More particularly, to determine whether compound 1 selectively binds to a kinase enzyme, various proteins (including a kinase enzyme) were used to check a change in fluorescence. In this experiment, a buffer (100 mM HEPES buffer, pH 7.4) was used as the solvent, and a kinase commercially available from Carna Biosciences was used as the kinase enzyme. Here, each kinase enzyme was stored at −80° C. together with a solvent (50 mM Tris-HCl, 150 mM NaCl, 0.1% CHAPS, 1 mM DTT, and 10% Glycerol, pH 7.5) kindly provided by the manufacturer. […] A 96-well fluorescence assay plate (commercially available from SPL Life Science) was used as a plate used upon measurement of fluorescence, and a VCITOR 3 multilabel counter (commercially available from Perkin Elmer-Wellesley) was used as a measuring machine. A 355 nm-thick filter was used to produce excitation wavelengths of the measuring machine, and a 535 nm-thick filter was used to produce emission wavelengths of the measuring machine. Stirring was performed at 37° C. for 24 hours at a rotary speed of 170 rpm using an NB-205Q model (commercially available from N-BIOTEK). Compound 1 was dissolved in a DMSO solution (1 mM, 10 mM, 50 mM, 100 mM, and 200 mM) to be used, and DMSO in every tube was adjusted to be substantially the same content (less than 1%) under the finally used solvent conditions. Mg^2+ and ATP were used at a content of 1 mM.
In the graph shown in FIG. 2, the horizontal axis represents kinds of proteins, and the vertical axis represents fluorescence intensities of the proteins. Each experimental value was basically an average value of three experiments conducted through the same course for preparing for experiments, a concentration of compound 1 used was 100 μM, and an amount of each protein was 0.2 μg/mL. The kinds of proteins indicated on the horizontal axis are as follows.
More particularly, Model WUV-L10 commercially available from WiseUV was used as a UV excitation device, and the solvent and experiment conditions used were substantially the same as in Example 3. Here, a fluorescence emission observed in the UV excitation device (UV excitation at 350 nm to 430 nm) was determined by taking an image.
More particularly, compound 1 (100 μM) and the kinase enzyme, Src or PDGFRa, were used at contents of 0.2 μg and 1 μg, respectively, and the solvent and experiment conditions used were substantially the same as in Example 3.
More particularly, the solvent and experiment conditions used were substantially the same as in Example 3. In the graph shown in FIG. 7, A represents a fluorescence intensity when compound 1 (100 μM) is used alone, B represents a fluorescence intensity when Mg (1 mM) is added to compound 1, C represents a fluorescence intensity when ATP (1 mM) is added to compound 1, and D represents a fluorescence intensity when compound 1 is treated with Mg (1 mM) and ATP (1 mM) at the same time.
More particularly, a concentration of the kinase enzyme was set to 0.2 μg/mL, fluorescence intensity according to the concentration of compound 1 was measured in the presence of Mg (1 mM) and ATP (1 mM), and the solvent conditions and other conditions were substantially the same as in Example 3.

- fluorescence under UV excitation (image) ([4]; PDGFRa with ATP and Mg, 37° C. 24 hours, UV 350 nm to 430 nm, compared with compound 1 alone): strong fluorescence
- fluorescence intensity ([4]; compound 1 100 μM, protein 0.2 μg/mL, with Mg and ATP (1 mM), 37° C. 24 hours): highest fluorescence intensity
- increase in fluorescence intensity ([4]; compound 1 at approximately 50 μM, kinase 0.2 μg/mL, Mg 1 mM, ATP 1 mM): approximately 50%
Structure (SMILES): CN(C)c1ccc2cc(C=O)c(O)cc2c1 [compound 1, 6-(dimethylamino)-3-hydroxyl-2-naphthaldehyde]
- cell viability [1]: more than 90%
- fluorescence image in cancer cells [2]: bright fluorescence image
- emission wavelength of fluorescence in cells [3]: around 550 nm
- fluorescence intensity, effect of cofactors ([4]; compound 1 100 μM, case D: Mg (1 mM) and ATP (1 mM) together): highest increase in fluorescence intensity
- fluorescence signal intensity according to concentration of kinase enzyme ([4]; compound 1 100 μM, enzyme 0.2 μg and 1 μg): stronger fluorescence signal intensity at higher concentrations
